Values joined by “and” are separate entries in the source; they are usually repeats but may differ in a detail not shown here. Equal values may be shown once.
Tested on: T1, GCaMP5-expressing T. gondii
T1 construct: whole extracellular parasites expressing GCaMP5 Ca2+ sensor
Set-up: species or system GCaMP5-expressing Toxoplasma gondii, extracellular; GCaMP5 fluorescence (cytosolic Ca2+) after 100 uM zaprinast in compound-pretreated extracellular parasites, background-subtracted, relative to zaprinast alone
Settings: 100 uM zaprinast stimulation, 10 min pretreatment, mean of two replicates, 0.23 h, 10 µM
Outline: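 Read-out is GCaMP5 calcium fluorescence (ex 485/em 525 nm) taken 4 min after 100 μM zaprinast at 37 °C, following 10 min compound pretreatment at 10 μM in duplicate biological replicates. Values are basal-subtracted fold change versus zaprinast-only controls; parasites held extracellular in Ringer's solution.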

SMILES | fold change in fluorescence relative to zaprinast alone
CCn1c(-c2nonc2N)nc2ccccc21 [SB-693162] | 0.7593 and 1.139
Fc1ccc(-c2nc3n(c2-c2ccncc2)CCS3)cc1 [SKF-86002] | 1.092
Fc1ccc(-c2nc3n(c2-c2ccncc2)CCS3)cc1 [GI98581X] | 0.7657 and 1.237

Same assay, conditions: 100 uM zaprinast stimulation; 10 min pretreatment; mean of two replicates; 0.23 h

SMILES | fold change in fluorescence relative to zaprinast alone
O=C1NC(=O)C(c2ccccc2Cl)=C1Nc1cccc(O)c1 [SB-390527] | 1.108
COc1ccc(Nc2nccc(NCCNC(=O)Nc3ccccc3F)n2)cc1 [GSK1379901A] | 0.9014
CS(=O)(=O)CCNCc1nc(-c2ccc3ncnc(Nc4ccc(OCc5cccc(C(F)(F)F)c5)cc4)c3c2)cs1 [GW569530A] | 1.148
COc1ccc(Nc2nccc(N3CCC(NC(=O)Nc4ccc5c(c4)OCO5)C3)n2)cc1 (stereo not shown) [GSK1379745A] | 1.223
CC(=O)Nc1cccc(C#Cc2cncnc2Nc2ccc(OCc3cccc(F)c3)c(Cl)c2)c1 [GW703087X] | 1.104
COC(=O)c1cccc(NC(=O)NC2CCN(c3ccnc(Nc4ccc(OC)cc4)n3)C2)c1 (stereo not shown) [GSK1379746A] | 1.123
CCn1c(-c2nonc2N)nc2cnc(Oc3cccc(NC(=O)c4ccc(OCCN5CCOCC5)cc4)c3)cc21 [GSK269962B] | 1.303
Cc1ccc(O)cc1Nc1ccnc2cc(-c3ccc(CN4CCCCC4)o3)ccc12 [GW557777X] | 0.8105
COc1cc(C=NNc2ncnc3c2cnn3Cc2ccccc2)ccc1O [GW643971X] | 1.09
CC(C)c1nc(-c2cccc(NS(=O)(=O)c3c(F)cccc3F)c2F)c(-c2ccnc(Nc3ccc(N4CCOCC4)nc3)n2)s1 [GSK2008607A] | 1.572
O=C(Nc1ccc(Oc2ccc3[nH]c(NC(=O)c4ccco4)nc3c2)cc1)Nc1cc(C(F)(F)F)ccc1F [GW683134A] | 1.019
COc1cc(N2CCN(C(C)C)CC2)ccc1Nc1nc(Nc2ccc(F)cc2C(=O)NC[C@@H](O)CO)c2cc[nH]c2n1 [GSK1392956A] | 1.138
NC(=O)c1sc(-n2cnc3ccccc32)cc1OCc1ccccc1Br [GSK1023156A] | 0.8843
CN(c1ccc2c(c1)nc(NCc1ccccc1)n2C)c1ccnc(Nc2ccc(CS(C)(=O)=O)cc2)n1 [GW811603A] | 1.239
N#Cc1cccc(Nc2nccc(-c3cnn4ncccc34)n2)c1 [GW778894X] | 0.1658
O=C(Nc1c(F)cccc1F)c1cc(C(=O)c2ccccc2F)c[nH]1 [GSK1326180A] | 0.8808
Cn1nc(-c2ccc(NC(=O)Nc3ccc4ccccc4c3)c(F)c2)c2cnc(NCCN3CCOCC3)nc21 [SB-750250-M] | 1.757
COc1cc2ncn(-c3cc(OCc4ccccc4C(F)(F)F)c(C(=O)N(C)C)s3)c2cc1OC [GSK1030062A] | 0.999
Cn1cncc1-c1cc2c(Nc3ccc(OCc4ccccc4)cc3)ncnc2cn1 [GW281179X] | 1.036
COc1cccc(-n2ncc3c(N/N=C/c4ccncc4)ncnc32)c1 [GW784752X] | 1.109
O=C(O[C@H]1CN[C@H](C#Cc2cc3ncnc(Nc4ccc(Cc5ccccc5)cc4)c3s2)C1)N1CCOCC1 [GSK238583A] | 1.249
Cc1cccc2c1NC(=O)/C2=N\Nc1ccc(S(N)(=O)=O)cc1 [GW282536X] | 1.189

SMILES | fold change in fluorescence relative to zaprinast alone
COc1cc2c(cc1Nc1nc(Nc3ccsc3C(N)=O)c3cc[nH]c3n1)N(C(=O)CN(C)C)CCC2(C)C [GSK2163632A] | 1.131
CN1CCC(n2cnc(-c3ccc(F)cc3)c2-c2ccnc(NCCO)n2)CC1 [SB-226879] | 1.236
FC(F)(F)c1ccc(-c2ncn(CCCN3CCOCC3)c2-c2ccncc2)cc1 [SB-217780] | 0.91
O=C(O[C@H]1CN[C@H](C#Cc2cc3ncnc(Nc4ccc(OCc5cccc(F)c5)c(Cl)c4)c3s2)C1)N1CCOCC1 [GW869810X] | 1.08
Cc1ccccc1-n1cnc2c(N)ncnc21 [SKF-97510] | 1.09
COc1nccc(-c2c(-c3ccc(F)cc3)ncn2CCCN2CCOCC2)n1 [SB-282852] | 0.8251
Cc1nnc(-c2ccc(C)c(-c3ccc(C(=O)Nc4cccc(C#N)c4)cc3)c2)o1 [GW607117X] | 1.107
O=C(Nc1ccc2c(c1)OCO2)NC1CCN(c2ccnc(NCc3ccc(F)cc3)n2)CC1 [GSK1379859A] | 0.7305
COc1ccc(Nc2nccc(N3CCC(NS(=O)(=O)c4ccc(NC(C)=O)cc4)C3)n2)cc1 (stereo not shown) [GSK1379729A] | 1.531
COc1cccc(-n2nc(C)c3c(N/N=C(\C)c4ccncc4)ncnc32)c1 [GW809885X] | 1.233
COc1cc2nccc(Nc3ccc(OCc4ccc(NC(C)=O)cc4)cc3)c2cc1OC [GW440135A] | 1.118
COc1cc2c(cc1Nc1nc(Nc3ccsc3C(N)=O)c3cc[nH]c3n1)N(C(=O)CN(C)C)CCC2 [GSK2110236A] | 1.302
Nc1nccc(-c2ccc3c(N)n[nH]c3c2)n1 [GSK1034945A] | 1.107
O=C(Nc1cccc(-c2nn3ncccc3c2-c2ccnc(Nc3cccnc3)n2)c1)c1c(F)cccc1F [GSK312879A] | 1.048
CCS(=O)(=O)c1ccc(OC)c(Nc2ncc(-c3cccc(-c4ccccc4F)c3)o2)c1 [GW678313X] | 1.071
COc1cccc(OC)c1C(=O)Nc1cccc(-c2nn3ccccc3c2-c2ccnc(Nc3cccc(F)c3)n2)c1 [GSK361065A] | 0.9782
COc1cc(C)c(NC(=O)CN(C)C)cc1Nc1nc(Nc2cccc(F)c2C(N)=O)c2cc[nH]c2n1 [GSK2213727A] | 1.59
COC(=O)Nc1nc2ccc(Oc3ccc(NC(=O)Nc4cc(C(F)(F)F)ccc4F)cc3)cc2[nH]1 [GW654607A] | 1.325
COc1ccc(Nc2nccc(N3CCC(NC(=O)c4cccc(C#N)c4)C3)n2)cc1 (stereo not shown) [GSK1379730A] | 0.96
CCCCCc1nc2c(N)ncnc2n1CCCCC [SKF-97255] | 0.8987
COc1cccc(-n2ncc3c(N/N=C/c4cccc(F)c4)ncnc32)c1 [GW817394X] | 1.201
c1ccc(Cc2nc3ccc(Nc4ncnc5ccccc45)cc3[nH]2)cc1 [GR269666A] | 1.257

SMILES | fold change in fluorescence relative to zaprinast alone
CC(C)c1ccc(-c2cc(-c3c[nH]nc3-c3ccccn3)ccn2)cc1 [GW682841X] | 1.973
Nc1nc(-c2cccnc2)c(-c2ccnc3ccccc23)s1 [GW684083X] | 0.9409
N#Cc1cnc2cc(-c3cnc(CNCCN4CCOCC4)s3)ccc2c1Nc1ccc(Oc2ccccc2)cc1 [GW664114X] | 1.528
Fc1ccc(-c2nc[nH]c2-c2ccncc2)cc1 [SB-217360] | 0.1031
Nc1nc(Nc2ccccc2)cc(-c2ccc3c(N)n[nH]c3c2)n1 [GSK2225749A] | 1.117
Cc1ccc(C(=O)Nc2ccc(Nc3ccnc4cc(-c5nccs5)ccc34)cc2O)cc1 [GW494702A] | 0.9828
Cc1[nH]nc2ccc(-c3cc(OC[C@@H](N)Cc4ccccc4)cnc3-c3ccoc3)cc12 [GSK507358A] | 0.7404
Cc1nnc(-c2ccc(C)c(-c3ccc(C(=O)Nc4ccc(NS(C)(=O)=O)cc4)cc3)c2)o1 [GW702865X] | 1.258
CCn1c(-c2nonc2N)nc2c(C#CCN)ncc(OCCCN)c21 [GSK561866B] | 1.218
CC(C)N1CCC(n2cnc(-c3ccc(F)cc3)c2-c2ccnc(N)n2)CC1 [SB-223132] | 0.4026
Cc1cccc(-c2nc(C)cc(Nc3ccncc3)n2)n1 [GSK257997A] | 0.832
CS(=O)(=O)c1ccc(-c2nc3n(c2-c2ccncc2)CCC3)cc1 [SKF-105942] | 0.9941
Cn1cncc1C(=O)NC1CCN(c2ccnc(Nc3ccc(F)cc3)n2)C1 (stereo not shown) [GSK1379717A] | 1.089
CCN(CC)S(=O)(=O)c1ccc(OC)c(Nc2ncc(-c3ccccc3)o2)c1 [GW572401X] | 1.034
c1cnn2ncc(-c3ccnc(Nc4ccc5c(c4)OCCO5)n3)c2c1 [GW806290X] | -0.04929
Fc1cc(Cl)ccc1Nc1ccnc2cc(-c3ccc(CN4CCSCC4)o3)ccc12 [GW560106X] | 0.6773
COc1cc(Nc2ncc(-c3ccccc3)o2)cc(OC)c1OC [GW627512B] | 0.9208
O=S(=O)(c1ccc(-c2ccnc3[nH]ccc23)cc1)N1CCCC1 [GSK846226A] | 1.029
C[C@@H](Oc1cc(-n2cnc3cc(-c4ccnc(NCCS(C)(=O)=O)c4)ccc32)sc1C(N)=O)c1ccccc1Cl [GSK907232A] | 1.132
O=C(Nc1cccc(-c2nn3ccccc3c2-c2ccnc(Nc3cccc(C(F)(F)F)c3)n2)c1)c1c(F)cccc1F [GSK292658A] | 1.154

Reference: PMC4850295, “Using a Genetically Encoded Sensor to Identify Inhibitors of Toxoplasma gondii Ca^2+ Signaling” (The Journal of Biological Chemistry, 2016)
